# What was measured:
# UN1 iPSC = test: Fatty acid supplementation at different steps of 4-step cardiac differentiation; assay type: cell-based, human; conditions: preliminary studies
# Experimental: FIGS. 3A-B. Addition of OA+9CLA during differentiation impairs differentiation. (A) Light Microscopy of UN1 iPSC during 4-step cardiac differentiation (methods) supplemented with 100 µM oleic acid and 50 µM 9CLA at different steps. […] (B) Quantification of portion of complete well death (left) and portion of beating wells resulted by supplementation with 100 µM oleic acid and 50 µM 9CLA at different steps of the 4-step cardiac differentiation (n=24; methods).
# (§1) Cells were seeded on Matrigel in mTeSR-1 medium and allowed to reach 80-90% confluence. Cardiac differentiation was conducted as previously described (Burridge, P. W. et al. Chemically defined generation of human cardiomyocytes. Nat Methods 11, 855-860, 2014). Briefly, a basal medium named CDM3 was used (RPMI-1640, 500 µg/mL recombinant human serum albumin, 213 µg/mL L-ascorbic acid 2-phosphate and 1% penicillin/streptomycin). At day zero of differentiation, the medium was replaced with CDM3 supplemented with 6 µmol/L CHIR99021 (Stemgent) for two days. At day two of the differentiation the culture-medium was switched to CDM3 medium supplemented with 2 µM Wnt-C59 (Selleckchem), for additional two days. From day four onward, cells were cultured with RPMI supplemented with B27-I (B27 supplement without Insulin; Gibco, USA). […]
# [1] = tested on: human embryonic stem cells; conditions: hESC on mouse fibroblast feeder layers; cited from earlier work
# adipocytes = conditions: short term exposure; cited from earlier work
# human muscle cells = conditions: cited from earlier work
# [2] = human subjects; cited from earlier work
# PPARα = target: T1, PPARα (Homo sapiens, UniProt Q07869); conditions: cited from earlier work
# T1 sequence (Q07869 1-468): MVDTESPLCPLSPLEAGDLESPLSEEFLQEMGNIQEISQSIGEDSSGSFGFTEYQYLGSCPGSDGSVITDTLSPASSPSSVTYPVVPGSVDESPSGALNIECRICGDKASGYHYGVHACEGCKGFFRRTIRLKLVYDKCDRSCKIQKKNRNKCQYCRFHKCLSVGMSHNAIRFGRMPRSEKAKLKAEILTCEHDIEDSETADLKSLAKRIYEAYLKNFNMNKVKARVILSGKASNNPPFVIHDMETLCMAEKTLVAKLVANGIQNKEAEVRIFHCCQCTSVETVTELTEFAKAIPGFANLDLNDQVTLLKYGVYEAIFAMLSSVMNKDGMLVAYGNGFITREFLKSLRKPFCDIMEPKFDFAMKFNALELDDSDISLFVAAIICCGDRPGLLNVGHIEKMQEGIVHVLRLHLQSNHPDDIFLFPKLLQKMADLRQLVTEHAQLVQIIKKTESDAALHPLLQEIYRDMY
# [3] = obese adults; cited from earlier work
# [4] = healthy individuals; cited from earlier work
# [5] = 3 week-old rats; cited from earlier work
# [6] = tested on: stem cell-derived cardiomyocytes; test: Seahorse MitoStress analysis of stem cell-derived cardiomyocytes; assay type: cell-based, human
# Experimental: as §1
# Mitochondrial function was measured using the Seahorse XF Cell Mito Stress Test Kit according to the manufacturer’s instructions (Agilent, Santa Clara, CA). […] The basal oxygen consumption rate (OCR) was measured for 30 minutes and then injected 1 µM oligomycin, a mitochondrial complex V inhibitor that blocks oxidative phosphorylation. […]
# [7] = tested on: pluripotent stem cells derived cardiomyocytes; test: Immunofluorescence / cell shape analysis of stem cell-derived cardiomyocytes; assay type: cell-based, human; conditions: OA+9CLA+GW9662
# Experimental: Cultured cells were fixed using 4% paraformaldehyde for 15 minutes at room temperature. Cells were then permeabilized in blocking solution (2% bovine serum albumin (BSA) and 0.25% Triton X-100 in PBS) for one hour at room temperature and incubated with primary antibodies (Table 13 below) for an additional hour. Following washes, cells were incubated with secondary antibodies (Table 14 below) for 1 hour at room temperature in blocking solution, washed twice in PBS and counterstained with 1 µg/ml Hoechest 33258 (Sigma Aldrich, USA) for 5 minutes. Imaging was performed on a Zeiss LSM 700 confocal microscope. Staining of actin was carried out simultaneously with secondary antibody incubation step by adding a 1:100 of Rhodamine-Phalloidin solution. Microscopic single cell and mitochondrial shape analysis was carried out using the CellProfiler software. Mitochondrial elongation was scored from 0 to 1, where 0 corresponds to a circle and 1 to a rectangle.
# Cells were seeded on Matrigel in mTeSR-1 medium and allowed to reach 80-90% confluence. Cardiac differentiation was conducted as previously described (Burridge, P. W. et al. Chemically defined generation of human cardiomyocytes. Nat Methods 11, 855-860, 2014). Briefly, a basal medium named CDM3 was used (RPMI-1640, 500 µg/mL recombinant human serum albumin, 213 µg/mL L-ascorbic acid 2-phosphate and 1% penicillin/streptomycin). […]
compound,measurement,setting,value
conjugated linoleic acid [CLA],outcome of addition during cardiomyocyte differentiation,UN1 iPSC,immature fibroblast-like cells that did not start beating
same,outcome of addition on terminally differentiated beating cardiomyocytes,UN1 iPSC,mature cardiomyocytes
same,decrease of differentiation of stem cell colonies,[1],20%
same,differentiation of mature adipocytes,adipocytes,delayed the differentiation of mature adipocytes
same,myogenic gene expression,human muscle cells,suppressed myogenic gene expression
same,effect on endothelial function,[2],negative effect
"CCCCCC/C=C/C=C\CCCCCCCC(=O)O [9CLA, 9Z,11E-octadeca-9,11-dienoic acid]",activity at PPARα,PPARα,agonist
same,insulin sensitivity and lipid peroxidation,[3],increasing
same,low density lipoproteins (LDL),[4],decreasing
same,effect of treatment,[5],did not have a beneficial effect
O=C(Nc1ccccc1)c1cc([N+](=O)[O-])ccc1Cl [GW9662],"effect of GW9662 on the effect of postnatal lipids, in all cases","[6]; all readouts (respiration, glycolysis, cell area, gene expression), 10 µM GW9662",reversed
same,effect of GW9662 on fatty acid-induced respiration increase and glycolysis decrease,[6]; short-term exposure to GW9662 with OA+9CLA,reversed both effects
same,effect of PPARα/γ inhibition on OA+9CLA-induced cell area increase,[7],reversed

# — US20230295575A1, “METHODS OF INCREASING MATURATION OF HEART, PANCREATIC BETA-CELLS, AND NEURONS” (Yissum Research Development Company of the Hebrew …, priority 2020, published 2023)
